Values of other authors as cited in publication PMC12503259, “Establishment of an in vivo analytical method for detecting total anti-UFH activity and pharmacokinetic study in PS and R15 in rats” (PLOS One, 2025).

What was measured:
[1] = clinical practice; cited from earlier work
Excerpt: In clinical practice, PS is typically administered at 1.2 times the anti-heparin activity of circulating UFH to achieve complete neutralization [40, 41].

[2] = UFH 300 U·kg^-1 in rats, preliminary experimental data; cited from earlier work
Excerpt: A dose of 300 U· kg^-1 dose of UFH is considered clinically effective. […] Accordingly, we performed pharmacokinetic studies of PS at 300 U kg^-1, and of R15 at 300, 900, and 2700 U· kg^-1 to determine whether R15 follows linear or nonlinear pharmacokinetics.

Unfractionated heparin [UFH]
T1/2 [1]: 1 to 2 h | duration of heparinization [2]: at least 4 hours
